Legend:
[1] = target: T1, Brd4 bromodomain 1 (BRD4(1)) (Homo sapiens, UniProt O60885); test: Inhibition of tetra-acetylated histone H4 binding to BET bromodomains (TR-FRET); parameters: key: Active: Compounds with an IC50 value less than 30 μM were deemed to be active.; Not Active: Compounds with an IC50 value less than 30 μM were deemed to be active; details: first bromodomain of Brd4, tetra-acetylated histone H4 peptide
T1 construct: made in house; host or cells: E. coli BL21(DE3)
Procedure, shortened: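 N-terminally His-tagged bromodomain (200 nM) from E. coli was mixed with biotinylated tetra-acetylated histone H4 peptide (25-50 nM), Eu-streptavidin and XL665 anti-His, plus compound, in HEPES pH 7.4 buffer with 0.2% DMSO. After 2 h at room temperature, the 665/620 nm TR-FRET decrease gave IC50 from dose-response curves.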

c-myc in MV4-11 cells = test: Inhibition of c-myc expression in cancer cell lines (mRNA, real-time PCR); format: cell-based, Human; parameters: key: Active: Compounds with an IC50 value less than 30 μM were deemed to be active.; Not Active: Compounds with an IC50 value less than 30 μM were deemed to be active; details: 3 h
Experimental: MV4-11 cells (2.5×10^4 cells) were plated in 96 well U-bottom plates with test compound or DMSO (0.1%), and incubated for 3 h at 37° C. Cells were then harvested by centrifugation, lysed, and mRNA was isolated using the mRNA catcher plus kit (Invitrogen). Reverse transcription of the mRNA and duplex amplification of the c-myc and cyclophilin cDNAs was performed using the RNA Ultrasense kit (Invitrogen) and a ViiA7 real-time PCR machine (Applied Biosystems). IC50 values were determined from a dose response curve.

human AML MV-4-11 cells = test: Inhibition of cell proliferation in cancer cell lines (CellTiter Aqueous One); format: cell-based; parameters: key: Active: Compounds with an IC50 value less than 30 μM were deemed to be active.; Not Active: Compounds with an IC50 value less than 30 μM were deemed to be active; details: 72 h
Procedure, shortened: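 IC50 values come from blank-corrected proliferation relative to DMSO controls, read as 490 nm absorbance 3–4 h after CellTiter Aqueous One addition. Before that, cells seeded at 5×10^4/well were exposed for 72 h (37° C, 5% CO2) to triplicate two-fold compound dilutions spanning 30–0.2 μM.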

hIL-6 mRNA = test: Inhibition of hIL-6 mRNA transcription in LPS-stimulated U937 macrophages; format: cell-based, human; parameters: key: Active: Compounds with an IC50 value less than 30 μM were deemed to be active.; Not Active: Compounds with an IC50 value less than 30 μM were deemed to be active; details: U937 cells differentiated with PMA, LPS stimulation, 3 h
Experimental: In this example, hIL-6 mRNA in tissue culture cells was quantitated to measure the transcriptional inhibition of hIL-6 when treated with a compound of the present disclosure.
A human leukemic monocyte lymphoma cell line (U937) was plated (3.2×10^4 cells per well) in a 96-well plate in 100 μL RPMI-1640 containing 10% FBS and penicillin/streptomycin, and differentiated into macrophages for 3 days in 60 ng/mL PMA ([…]) at 37° C. in 5% CO2 prior to the addition of the compound of interest. The cells were pretreated for 1 h with the test compound prior to stimulation with 1 ug/mL lipopolysaccharide from Escherichia coli. The cells were incubated at 37° C. for 3 h before the cells were harvested. At time of harvest, the spent media was removed from the cells and the cells were rinsed in 200 μL PBS. Cell lysis solution (70 μL) was added the cells in each well and incubated for 5-10 min at room temperature, to allow for complete cell lysis and detachment. mRNA was then prepared using the “mRNA Catcher PLUS plate” (Invitrogen), according to the protocol supplied. After the last wash, as much wash buffer as possible was aspirated without allowing the wells to dry. Elution buffer (E3, 70 μL) was then added to each well. mRNA was then eluted by incubating the mRNA Catcher PLUS plate with Elution Buffer for 5 min at 68° C. and then immediately placing the plate on ice.
The eluted mRNA isolated was then used in a one-step quantitative real-time PCR reaction, using components of the Ultra Sense Kit together with Applied Biosystems primer-probe mixes. Real-time PCR data was analyzed, normalizing the Ct values for hIL-6 to an internal control, prior to determining the fold induction of each unknown sample, relative to the control.

hApoA-1 mRNA = test: Up-regulation of hApoA-1 mRNA transcription in Huh7 cells; format: cell-based, human; parameters: key: Active: Compounds with an EC170 value less than 30 μM were deemed to be active; details: 48 h treatment
Experimental: In this example, ApoA-I mRNA in tissue culture cells was quantitated to measure the transcriptional up-regulation of ApoA-I when treated with a compound of the present disclosure.
Huh7 cells (2.5×10^5 per well) were plated in a 96-well plate using 100 μL DMEM per well, (Gibco DMEM supplemented with penicillin/streptomycin and 10% FBS), 24 h before the addition of the compound of interest. After 48 h treatment, the spent media was removed from the Huh-7 cells and placed on ice (for immediate use) or at −80° C. (for future use) with the “LDH cytotoxicity assay Kit II” from Abcam. The cells remaining in the plate were rinsed with 100 μL PBS.
Then 85 μL of cell lysis solution was added to each well and incubated for 5-10 min at room temperature, to allow for complete cell lysis and detachment. mRNA was then prepared using the “mRNA Catcher PLUS plate” from Life Technologies, according to the protocol supplied. After the last wash, as much wash buffer as possible was aspirated without allowing the wells to dry. Elution Buffer (E3, 80 μL) was then added to each well. mRNA was then eluted by incubating the mRNA Catcher PLUS plate with Elution Buffer for 5 min at 68° C., and then 1 min at 4° C. Catcher plates with mRNA eluted were kept on ice for use or stored at −80° C.
The eluted mRNA isolated was then used in a one-step real-time PCR reaction, using components of the Ultra Sense Kit together with Life Technologies primer-probe mixes. Real-time PCR data was analyzed, using the Ct values, to determine the fold induction of each unknown sample, relative to the control (that is, relative to the control for each independent DMSO concentration).
Compounds with an EC170 value less than 30 μM were deemed to be active.

SMILES | FRET activity BRD4(1) [1] | c-myc activity (IC50 < 30 μM) (c-myc in MV4-11 cells) | Cell Proliferation activity (IC50 < 30 μM) (human AML MV-4-11 cells) | IL-6 activity (IC50 < 30 μM) (hIL-6 mRNA) | melting point [°C] | ApoA-1 activity (EC170 < 30 μM) (hApoA-1 mRNA)
COc1ccc(-c2nc3cc(OC)cc(OC)c3c(=O)[nH]2)c(NCCCN2CCNCC2)c1 [Example 28, 5,7-Dimethoxy-2-(4-methoxy-2-[3-(piperazin-1-yl)propylamino]phenyl)quinazolin-4(3H)-one] | Active | Active | Active | Active | 225 to 228 | 
COc1ccc(-c2nc3cc(OC)cc(OC)c3c(=O)[nH]2)c(NCCNC(C)C)c1 [Example 8, 2-(2-((2-(Isopropylamino)ethyl)amino)-4-methoxyphenyl)-5,7-dimethoxyquinazolin-4(3H)-one] | Active | Active | Active | Active | 262 to 264 | 
COc1cc(OC)c2c(=O)[nH]c(-c3ncccc3NC3CCN(C(C)C)CC3)nc2c1 [Example 18, 2-(3-((1-Isopropylpiperidin-4-yl)amino)pyridin-2-yl)-5,7-dimethoxyquinazolin-4(3H)-one] | Active | Active | Active | Active | 170 to 172 | 
COc1cc(OC)c2c(=O)[nH]c(-c3ncccc3NCCNC(=O)C(C)C)nc2c1 [Example 56, N-(2-((2-(5,7-Dimethoxy-4-oxo-3,4-dihydroquinazolin-2-yl)pyridin-3-yl)amino)ethyl)isobutyramide] | Active | Active | Active | Active | 235 to 237 | 
COc1ccc(-c2nc3cc(OC)cc(OC)c3c(=O)[nH]2)c(NCCN2CCN(C)CC2)c1 [Example 25, 5,7-Dimethoxy-2-(4-methoxy-2-((2-(4-methylpiperazin-1-yl)ethyl)amino)phenyl)-quinazolin-4(3H)-one] | Active |  |  | Active | 230 to 231 | Active
COc1cc(OC)c2c(=O)[nH]c(-c3ncccc3NC3CCN(C(=O)C(C)O)CC3)nc2c1 (stereo not drawn) [Example 60, 2-(3-((1-(2-hydroxypropanoyl)piperidin-4-yl)amino)pyridin-2-yl)-5,7-dimethoxyquinazolin-4(3H)-one] | Active | Active | Active | Active | 290 to 291 | 
COc1cc(OC)c2c(=O)[nH]c(-c3ncccc3NC3CCN(C(=O)C(F)(F)F)CC3)nc2c1 [Example 46, 5,7-Dimethoxy-2-(3-((1-(2,2,2-trifluoroacetyl)piperidin-4-yl)amino)pyridin-2-yl)quinazolin-4(3H)-one] | Active | Active | Active | Active | 218 to 219 | 

Continued, in another order:

FRET activity BRD4(1) [1] | c-myc activity (IC50 < 30 μM) (c-myc in MV4-11 cells) | Cell Proliferation activity (IC50 < 30 μM) (human AML MV-4-11 cells) | IL-6 activity (IC50 < 30 μM) (hIL-6 mRNA) | melting point [°C] | SMILES | ApoA-1 activity (EC170 < 30 μM) (hApoA-1 mRNA)
Active | Active | Active | Active | 252 to 253 | COc1ccc(-c2nc3cc(OC)cc(OC)c3c(=O)[nH]2)c(NC2CCN(C)CC2)c1 [Example 1, 5,7-Dimethoxy-2-(4-methoxy-2-((1-methylpiperidin-4-yl)amino)phenyl)-quinazolin-4(3H)-one] | Active
Active | Active | Active | Active |  | COc1cc(OC)c2c(=O)[nH]c(-c3ncccc3NC3CCN(C(=O)C(C)C)CC3)nc2c1 [Example 36, 2-(-((1-Isobutyrylpiperidin-4-yl)amino)pyridin-2-yl)-5,7-dimethoxyquinazolin-4(3H)-one] | Active
Active | Active | Active | Active | 208 to 210 | COc1ccc(-c2nc3cc(OC)cc(OC)c3c(=O)[nH]2)c(NCCCNC(C)C)c1 [Example 20, 2-(2-((3-(Isopropylamino)propyl)amino)-4-methoxyphenyl)-5,7-dimethoxyquinazolin-4(3H)-one] | Active
Active | Active | Not Active | Active | 151 to 152 | CCNC(=O)N1CCC(Nc2cccnc2-c2nc3cc(OC)cc(OC)c3c(=O)[nH]2)CC1 [Example 52, 4-((2-(5,7-dimethoxy-4-oxo-3,4-dihydroquinazolin-2-yl)pyridin-3-yl)amino)-N-ethylpiperidine-1-carboxamide] | 
Active | Active | Active | Active | 209 to 210 | COc1cc(OC)c2c(=O)[nH]c(-c3ncccc3NC3CCN(C(=O)C(C)(C)C)CC3)nc2c1 [Example 48, 5,7-Dimethoxy-2-(3-((1-pivaloylpiperidin-4-yl)amino)pyridin-2-yl)quinazolin-4(3H)-one] | 
Active | Active | Active | Active | 248 to 250 | COc1ccc(-c2nc3cc(OC)cc(OC)c3c(=O)[nH]2)c(NC2CCN(C(C)C)CC2)c1 [Example 3, 2-(2-((1-isopropylpiperidin-4-yl)amino)-4-methoxyphenyl)-5,7-dimethoxyquinazolin-4(3H)-one] | 

Reference: patent publication US10500209B2, “Quinazolinones as bromodomain inhibitors” (Zenith Epigenetics Ltd., priority 2013, dated 2019)
